Like-named read-outs stand apart in the source and are kept apart here.
Key:
[1] = tested on: 290 kinases (excluding mutants); type: binding; details: for Ka-Gini: Gini score calculated directly on Kas of the Ambit dataset (Kds of ref 5); for entropies (selectivity entropy, Ssel): calculated from Kds of the Ambit dataset (ref 5); for entropies (selectivity entropy, Ssel) / number of kinases inhibited below 3 μM: 290 kinases; for number of kinases inhibited below 3 μM: Ambit profile
From the text: Having defined the entropy, we next investigated its performance relative to the most widely-used methods, on a public profiling dataset of 38 inhibitors on 290 non-mutant kinases (Table 1 and Additional file 1). […] To this we added a Ka-Gini value and the selectivity entropy. The Ka-Gini is a Gini score directly calculated on Kas, without reverting to %-inhibition values (see below). […] In addition, to get an overview of the profiling raw data, we appended an activity-based heat map (Uitdehaag_S1).
(§1) It is worth to note that the partition coefficient is the same as ϕl in our entropy equation (eq. 2).
The Gini score was calculated from data on %-inhibition. […] In addition, to work more directly with Kds, we also introduce a Ka-Gini score, in which association constants are used for rank-ordering the kinase profile. […] All calculations were done in Microsoft Excel. […]

[2] = tested on: 222 human kinases; assay: Millipore kinase profiling (radioactive filter binding activity assay at [ATP] = KM,ATP) and selectivity metrics calculated from it; type: biochemical; design: selectivity score: scale not given here; details: for Ka-Gini score / Pmax / S10x / selectivity score: calculated from Millipore activity data; for selectivity entropy: calculated from Millipore activity data (pEC50), [ATP] = KM,ATP
From the text: As a next step we selected 16 compounds from the public profile (Ambit), and measured activity data on these using a different profiling service (Millipore, data available as Additional file 2). […] Also for these new data, we calculated the selectivity metrics (Uitdehaag_S2). In the ideal case, the selectivity values are similar irrespective of profiling technology (in the same way that a Kd value is ideally independent of laboratory and assay format). The data of both methods are plotted in Figure 2.
as §1
The Gini score was calculated from data on %-inhibition. […] In addition, to work more directly with Kds, we also introduce a Ka-Gini score, in which association constants are used for rank-ordering the kinase profile. […] All calculations were done in Microsoft Excel.
For comparing profiles across methods (Figure 2), we selected 16 kinase inhibitors of the Ambit profile (Table 2) and submitted these to the kinase profiling service from Millipore (http://www.millipore.com/drugdiscovery/svp3/kpservices, data available as Additional file 2). Both profiling methods are described earlier and differ (among other variations) in the following way: Ambit uses a competitive binding setup in absence of ATP on kinases from T7 or HEK293 expression systems. Millipore uses a radioactive filter binding activity assay, with kinases purified from Escherichia coli or baculovirus expression systems.

[3] = tested on: 290 kinases (excluding mutants); details: cited from earlier work
[4] = Ambit dataset, 38 inhibitors on 290 non-mutant kinases, values taken from earlier work
[5] = Ambit dataset, fraction of kinases hit at 10 times the Kd of the target, values taken from earlier work
[6] = Ambit dataset, fraction of kinases hit below 3 μM, values taken from earlier work
[7] = Ambit dataset, values taken from earlier work
[8] = rank among 38 inhibitors, Ambit dataset

SMILES	Ka-Gini [1]	entropies (selectivity entropy, Ssel) [1]	Pmax [2]	S10x [2]	Gini [3, 4]	S10x [3, 5]	Pmax (partition index) [3, 7]	further results
Cc1cc(Nc2cc(N3CCN(C)CC3)nc(Sc3ccc(NC(=O)C4CC4)cc3)n2)[nH]n1 [VX-680, tozasertib]	0.93	3.09	0.278	0.020	0.76	0.03	0.15	Ka-Gini score [2]: 0.972; selectivity score [2]: 0.199; selectivity entropy [2]: 2.625; S3uM (selectivity score S(3 μM)) [3, 6]: 0.38
CNC(=O)c1cc(Oc2ccc(NC(=O)Nc3ccc(Cl)c(C(F)(F)F)c3)cc2)ccn1 [Sorafenib, sorafenib]	0.97	–	0.149	0.029	0.82	0.10	–	Ka-Gini score [2]: 0.975
CN1CC[C@H](c2c(O)cc(O)c3c(=O)cc(-c4ccccc4Cl)oc23)[C@H](O)C1 [Flavopiridol]	0.95	–	–	–	0.77	–	–	–
Cn1cnc2c(F)c(Nc3ccc(Br)cc3Cl)c(C(=O)NOCCO)cc21 [AZD6244]	–	–	0.999	0.002	–	–	–	Ka-Gini score [2]: 1.000; selectivity entropy [2]: 0.020
C#Cc1cccc(Nc2ncnc3cc(OCCOC)c(OCCOC)cc23)c1 [Erlotinib]	0.99	0.88	–	–	0.75	0.00	0.67	S3uM (selectivity score S(3 μM)) [3]: 0.15
CO[C@@H]1[C@H](N(C)C(=O)c2ccccc2)C[C@H]2O[C@]1(C)n1c3ccccc3c3c4c(c5c6ccccc6n2c5c31)C(=O)NC4 [PKC-412]	0.88	–	–	–	0.71	–	–	–
COc1cc2c(Nc3ccc(Br)cc3F)ncnc2cc1OCC1CCN(C)CC1 [ZD-6474, vandetanib]	0.94	–	0.117	0.041	0.79	0.26	–	number of kinases inhibited below 3 μM [1]: 79 kinases; Ka-Gini score [2]: 0.963
CS(=O)(=O)CCNCc1ccc(-c2ccc3ncnc(Nc4ccc(OCc5cccc(F)c5)c(Cl)c4)c3c2)o1 [Lapatinib]	0.99	–	–	–	0.57	–	–	–
COc1ccc(COc2ccc(Cc3cnc(N)nc3N)cc2OC)cc1 [GW-2580]	0.99	0.26	–	–	0.54	0.00	0.92	S3uM (selectivity score S(3 μM)) [3, 6]: 0.01
O=C(NOC[C@H](O)CO)c1ccc(F)c(F)c1Nc1ccc(I)cc1F [PD-0325901]	–	–	0.857	0.002	–	–	–	Ka-Gini score [2]: 1.000; selectivity score [2]: 0.005; selectivity entropy [2]: 0.550
CCN(CC)CCNC(=O)c1c(C)[nH]c(/C=C2\C(=O)Nc3ccc(F)cc32)c1C [Sunitinib, sunitinib]	–	–	0.107	0.038	0.67	0.02	–	number of kinases inhibited below 3 μM [1]: 181 kinases
O=c1ncn2nc(Sc3ccc(F)cc3F)ccc2c1-c1c(Cl)cccc1Cl [VX-745]	0.99	0.28	0.820	0.005	0.51	0.00	0.92	Ka-Gini score [2]: 0.997; selectivity entropy [2]: 0.590; S3uM (selectivity score S(3 μM)) [3, 6]: 0.03
CCN1CCN(Cc2ccc(NC(=O)Nc3ccc(Oc4cc(NC)ncn4)cc3)cc2C(F)(F)F)CC1 [AST-487]	0.95	2.74	–	–	0.73	0.04	0.11	S3uM (selectivity score S(3 μM)) [3, 6]: 0.45
C=CC(=O)Nc1cc2c(Nc3ccc(F)c(Cl)c3)ncnc2cc1OCCCN1CCOCC1 [CI-1033]	0.99	–	–	–	0.72	–	–	–
Cc1ccc(NC(=O)c2ccc(CN3CCN(C)CC3)cc2)cc1Nc1nccc(-c2cccnc2)n1 [Imatinib, imatinib]	–	–	–	–	–	–	–	Gini [3]: 0.79; S10x [3]: 0.02
Cc1cn(-c2cc(NC(=O)c3ccc(C)c(Nc4nccc(-c5cccnc5)n4)c3)cc(C(F)(F)F)c2)cn1 [nilotinib]	–	–	0.208	0.027	–	–	–	Ka-Gini score [2]: 0.980; selectivity score [2]: 0.095; selectivity entropy [2]: 2.360

SMILES	Ka-Gini [1]	entropies (selectivity entropy, Ssel) [1]	Pmax [2]	S10x [2]	Gini [3, 4]	S10x [3, 5]	Pmax (partition index) [3, 7]	further results
Nc1nc(Nc2ccc(S(N)(=O)=O)cc2)nn1C(=O)c1c(F)cccc1F [JNJ-7706621]	0.87	3.73	–	–	0.74	0.08	0.10	S3uM (selectivity score S(3 μM)) [3]: 0.37
C[S+]([O-])c1ccc(-c2nc(-c3ccncc3)c(-c3ccc(F)cc3)[nH]2)cc1 (stereo not drawn) [SB-203580]	–	–	0.342	0.016	0.77	0.02	–	Ka-Gini score [2]: 0.987
C[C@@H]1CCN(C(=O)CC#N)C[C@@H]1N(C)c1ncnc2[nH]ccc12 [CP-690550, tasocitinib]	–	–	0.481	0.005	0.66	–	–	Ka-Gini score [2]: 0.995
COCC(=O)NC/C=C/c1ccc2ncnc(Nc3ccc(Oc4ccc(C)nc4)c(C)c3)c2c1 [CP-724714]	0.99	1.10	–	–	0.49	0.01	0.33	S3uM (selectivity score S(3 μM)) [3, 6]: 0.02
CN(C)C[C@@H]1CCn2cc(c3ccccc32)C2=C(C(=O)NC2=O)c2cn(c3ccccc23)CCO1 [LY-333531]	0.98	–	–	–	0.76	–	–	–
CC(C)(C)c1cnc(CSc2cnc(NC(=O)C3CCNCC3)s2)o1 [SNS-032]	0.97	–	–	–	–	–	–	–
NC(=O)c1ccc(-c2nc(-c3ccc4c(c3)OCO4)c(-c3ccccn3)[nH]2)cc1 [SB-431542]	0.98	1.56	–	–	0.42	0.01	0.14	number of kinases inhibited below 3 μM [1]: 5 kinases; selectivity rank by Ka-Gini [1, 8]: 15; selectivity rank by Pmax [1, 8]: 31; selectivity rank by selectivity entropy [1, 8]: 14; S3uM (selectivity score S(3 μM)) [3, 6]: 0.02; IC50 ([3]; Ambit profile, four kinases not named, read-out: IC50s on the four kinases hit with very similar IC50s): 100 to 300 nM
CC1(C)CNc2cc(NC(=O)c3cccnc3NCc3ccncc3)ccc21 [AMG-706]	0.97	2.36	–	–	0.82	0.04	0.22	S3uM (selectivity score S(3 μM)) [3]: 0.09
Clc1ccc(Nc2nnc(Cc3ccncc3)c3ccccc23)cc1 [PTK-787]	–	–	–	–	–	–	–	Gini [3]: 0.71
Oc1ccc(-c2nc(-c3ccncc3)c(-c3ccc(F)cc3)[nH]2)cc1 [SB-202190]	0.97	2.08	–	–	0.76	0.02	0.35	S3uM (selectivity score S(3 μM)) [3]: 0.09
CN[C@@H]1C[C@H]2O[C@@](C)([C@@H]1OC)n1c3ccccc3c3c4c(c5c6ccccc6n2c5c31)C(=O)NC4 [Staurosporine]	–	–	–	–	0.35	0.50	–	–
COc1cc2ncnc(Nc3ccc(F)c(Cl)c3)c2cc1OCCCN1CCOCC1 [Gefitinib]	–	–	–	–	0.65	–	–	–
CCOc1cc2ncc(C#N)c(Nc3ccc(F)c(Cl)c3)c2cc1NC(=O)/C=C/CN(C)C [EKB-569]	0.99	0.89	–	–	0.78	0.00	0.67	S3uM (selectivity score S(3 μM)) [3, 6]: 0.18
CN1CCN(c2ccc3nc(-c4c(N)c5c(F)cccc5[nH]c4=O)[nH]c3c2)CC1 [CHIR-258]	0.97	–	–	–	0.76	0.01	–	–
Cc1ccc(Nc2nccc(N(C)c3ccc4c(C)n(C)nc4c3)n2)cc1S(N)(=O)=O [GW-786034]	0.97	2.06	–	–	0.80	0.02	0.33	S3uM (selectivity score S(3 μM)) [3, 6]: 0.21
